We go through two compounds from article PMC4700278, “Molecular and Biochemical Analysis of the Estrogenic and Proliferative Properties of Vitamin E Compounds” (Frontiers in Oncology, 2016).

One assay deals with T1, ERα (Homo sapiens, UniProt P03372).
T1 sequence (P03372 1-595): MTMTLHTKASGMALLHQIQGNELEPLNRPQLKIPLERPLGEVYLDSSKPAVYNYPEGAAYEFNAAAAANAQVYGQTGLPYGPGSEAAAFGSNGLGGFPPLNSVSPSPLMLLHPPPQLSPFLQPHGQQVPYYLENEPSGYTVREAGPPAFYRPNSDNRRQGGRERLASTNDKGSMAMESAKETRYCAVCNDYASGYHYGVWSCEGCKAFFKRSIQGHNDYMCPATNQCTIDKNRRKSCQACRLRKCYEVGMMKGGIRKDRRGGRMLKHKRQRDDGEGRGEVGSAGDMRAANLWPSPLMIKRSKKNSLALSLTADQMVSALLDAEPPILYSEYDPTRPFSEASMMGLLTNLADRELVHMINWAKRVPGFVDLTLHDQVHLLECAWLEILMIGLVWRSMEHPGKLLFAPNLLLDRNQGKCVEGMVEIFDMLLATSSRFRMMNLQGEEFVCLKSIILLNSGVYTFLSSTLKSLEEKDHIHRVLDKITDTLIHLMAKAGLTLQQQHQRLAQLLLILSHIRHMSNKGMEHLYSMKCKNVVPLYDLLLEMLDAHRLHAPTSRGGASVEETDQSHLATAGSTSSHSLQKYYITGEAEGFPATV
The note with it: MCF-7 cells; 500 μM δ-TP or δ-TT, 100 nM E2; 3 h; western blot, GAPDH control. The procedure:
Figure 3 Measurement of estrogenicity of tocols in vitro. (A) Dose–response curve of the effect of tocols on MCF-7 cells stably transfected with the ERE-β-globin-tk-Luc plasmid (MELN cells). […] Data shown are the mean values ± SEM from three independent experiments. […] MCF-7 extracts were analyzed for the presence of ERα by western blotting using GAPDH as a control. […] The western blot shown is representative of three independent experiments. The ratio of ERα to GAPDH levels in each experiment was determined densitometrically and normalized to control value (taken to be 1). (D) Effect of δ-tocols on estrogen response element-dependent luciferase activity in HELN cells, which are HELA cells transfected with either fully functional ERα or ERβ or their mutated versions containing a deletion the AB domain (ΔAB). […] Data shown are the mean values ± SEM from three independent experiments. […] Cells were treated with 500 μM δ-tocols in the presence or in the absence of ICI. The relative expression of TGFα, PR, and Ps2 (TFF1) after 16 h was analyzed by quantitative RT-PCR. Data shown are the mean values ± SEM from three independent experiments.
Background: Immunoblotting shows a protein as a band on a membrane.

A further assay concerns the target ERβ (Homo sapiens, UniProt Q92731). Particulars: HELN-ERβ cells; 500 μM. The source says: MELN cells were established by transfecting ER(+) MCF-7 cells with the ERE-β-globin-tk-Luc-SV-Neo plasmid ([36]). HELN cells were generated by transfection of ER(−) HeLa cells with this plasmid. The HELN-ERα, HELN-ERβ, HELN-ΔAB-ERα, and HELN-ΔAB-ERβ cell lines then underwent a second transfection with the corresponding pSG5-puro plasmids (pSG5-ERα-puro, pSG5-ERβ-puro, pSG5-ΔAB-ERα-puro, and pSG5-ΔAB-ERβ-puro, respectively) and expressed wild-type or mutated ERα or ERβ ([39], [40]). […] Luciferase activity was measured using the luciferase assay reagent (Promega), according to the manufacturer’s instructions. Protein concentrations were measured using the Bradford technique ([41]) to normalize the luciferase activity data. For each condition, average luciferase activity was calculated from the data of three independent wells.
Figure 3 Measurement of estrogenicity of tocols in vitro. […] MCF-7 extracts were analyzed for the presence of ERα by western blotting using GAPDH as a control. […] The ratio of ERα to GAPDH levels in each experiment was determined densitometrically and normalized to control value (taken to be 1). […] The relative expression of TGFα, PR, and Ps2 (TFF1) after 16 h was analyzed by quantitative RT-PCR. […]

Another assay deals with T47D (ER(+)) cells. In words: Cell proliferation assay (sulforhodamine B). The note with it: 500 μM δ-TP or δ-TT; 30 μM lovastatin; 6-day period. In kind it is cell-based, human.
A further assay relates to MDA-MB-231 (ER(−)) cells. In words: Cell proliferation assay (sulforhodamine B). In kind it is cell-based, human. The note with it: 500 μM δ-TP or δ-TT; 30 μM lovastatin; 6-day period. As for the experimental part: MCF-7 (ER(+)), T47D (ER(+)), and MDA-MB-231 (ER(−)) cell lines were from ATCC. Cell lines were maintained at 37°C in a humidified incubator in a 5% CO2-enriched atmosphere in T-75 flasks. MCF-7, T47D, and MDA-MB-231 cells were grown routinely in phenol red RPMI 1640 medium supplemented with 5% FBS (Gibco BRL, Life Technologies, Cergy Pontoise, France) and with penicillin–streptomycin. Cells were grown for 24 h before treatment in phenol red-free medium containing 5% DCC-FCS. Cells were seeded into 96-well plates at 2000 cells/well. Treatment media (150 μl/well) was added on the following day and replaced at 48-h intervals until the end of the experiment. Cell density was measured via the sulforhodamine B method ([43]) after 0, 2, 4, 6, and 8 days. The absorbance of SRB was measured directly at 490 nm in the 96-well plates using a multiskan® multisoft reader from Labsystem.
Figure 4 Effect of tocol on ER(+) and ER(−) BC cell proliferation and HMG-CoA reductase activity. (A) Effect of δ-tocols on estrogen and non-estrogen-regulated growth of MCF-7, T47D, and MDA-MB-231 cells. […] Cells were also treated with 30 μM lovastatin (Lova) in the presence or absence of 5 mM M, as described in Section “Materials and Methods.” Values are shown as means and vertical bars represent SEM. The data were analyzed by two-way ANOVA, followed by Bonferroni post hoc test. ***P < 0.001, **P < 0.01, and *P < 0.05 in comparison with control or bare-linked specific control. Ns: not significant. (B) Effect of δ-TT on hydroxymethylglutaryl coenzyme A reductase (HMGR) activity in MCF-7, T47D, and MDA-MB-231 cells. […] Data shown are the mean values ± SEM from three independent experiments performed in triplicate.

ERβ, sequence (Q92731 whole entry): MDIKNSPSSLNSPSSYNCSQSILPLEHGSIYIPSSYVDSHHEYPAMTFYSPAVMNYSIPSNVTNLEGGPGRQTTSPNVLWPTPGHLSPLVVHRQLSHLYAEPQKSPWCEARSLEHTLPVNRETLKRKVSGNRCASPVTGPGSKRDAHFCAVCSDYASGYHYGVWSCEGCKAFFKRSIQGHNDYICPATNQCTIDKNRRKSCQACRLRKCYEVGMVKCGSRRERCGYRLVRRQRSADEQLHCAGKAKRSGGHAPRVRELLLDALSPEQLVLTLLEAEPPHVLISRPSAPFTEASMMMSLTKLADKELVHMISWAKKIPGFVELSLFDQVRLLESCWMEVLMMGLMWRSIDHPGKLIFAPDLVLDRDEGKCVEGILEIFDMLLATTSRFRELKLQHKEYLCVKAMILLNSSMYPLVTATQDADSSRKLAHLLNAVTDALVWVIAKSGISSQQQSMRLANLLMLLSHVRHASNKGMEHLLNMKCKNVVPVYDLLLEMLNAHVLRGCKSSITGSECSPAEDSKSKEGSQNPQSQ
Description for T47D (ER(+)) cells: MCF-7 (ER(+)), T47D (ER(+)), and MDA-MB-231 (ER(−)) cell lines were from ATCC. Cell lines were maintained at 37°C in a humidified incubator in a 5% CO2-enriched atmosphere in T-75 flasks. […] Cells were grown for 24 h before treatment in phenol red-free medium containing 5% DCC-FCS. Cells were seeded into 96-well plates at 2000 cells/well. Treatment media (150 μl/well) was added on the following day and replaced at 48-h intervals until the end of the experiment. Cell density was measured via the sulforhodamine B method ([43]) after 0, 2, 4, 6, and 8 days. The absorbance of SRB was measured directly at 490 nm in the 96-well plates using a multiskan® multisoft reader from Labsystem.

Consider `CC(C)=CCC/C(C)=C/CC/C(C)=C/CC[C@]1(C)CCc2cc(O)cc(C)c2O1` [δ-TT, δ-tocotrienol], for which the “degradation of ERα protein” value at ERα was “not degraded”. Also, the “ER-dependent luciferase activity through ERβ” value on ERβ is recorded as “activate ER-dependent luciferase activity”. In the assay on T47D (ER(+)) cells, the “effect on T47D cell proliferation” value was “inhibited the proliferation”. In the assay with MDA-MB-231 (ER(−)) cells, the “effect on MDA-MB-231 cell proliferation” value is recorded as “inhibited the proliferation”.

In the case of `Cc1cc(O)cc2c1OC(C)(CCCC(C)CCCC(C)CCCC(C)C)CC2` (stereo not shown) [δ-TP, δ-tocopherol], at ERα, the “degradation of ERα protein” value is “not degraded”. Also, in the assay with T47D (ER(+)) cells, the “effect on T47D cell proliferation” value was “significant stimulation”. For the same compound, the “effect on MDA-MB-231 cell proliferation” value in the assay on MDA-MB-231 (ER(−)) cells is “no impact”.
